In patent US20260083864A1, “CONTRAST AGENTS FOR USE IN DIAGNOSTIC COMPUTED TOMOGRAPHY IMAGING” (Bayer Aktiengesellschaft, priority 2022, published 2026):
Where two headings read alike, the source gives them in different places.

Tests used:
[1] = test system: freshly isolated rat hepatocytes; assay: Uptake into freshly isolated rat hepatocytes; details: for Uptake rat hepatocytes: 100 μmol Gd/L, 10 min, 37° C., relative to RC1 (Gd-EOB-DTPA); for Inhibition Rifampicine: rat hepatocyte uptake, test item and Rifampicine 1:1, each 100 μM
[2] = Relaxivity measurements at 1.41 T in water; format: physicochemical; details: 37° C., normalized to Gd
Summary of the method: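 T1 by inversion recovery and T2 by CPMG at 1.41 T (60 MHz), 37° C, relaxation delay ≥5×T1. Three Gd concentrations between 0.05 and 2 mM; relaxivities derived from measured relaxation rates in water.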

[3] = Biliary elimination in bile duct cannulated (BDC) rats; details: 0.1 mmol Gd/kg bw i.v.
Protocol: All animals are initially anesthetized using a body weight-adjusted intramuscular injection of a mixture (1+2) of xylazine hydrochloride (20 mg/mL, Rompun 2%, Bayer Vital GmbH, Leverkusen) and ketamine hydrochloride (100 mg/mL, Ketavet, Pfizer, Pharmacia GmbH, Berlin) using 1 mL/kg body weight. The continuous anesthesia of the animals is achieved by the intravenous injection of 1.5 mL per hour (Braun perfusor infusion of 1+2, 1:20 saline, xylazine hydrochloride 20 mg/mL, Rompun 2%, Bayer Vital GmbH, Leverkusen and ketamine hydrochloride 100 mg/mL, Ketavet, Pfizer, Pharmacia GmbH, Berlin) via tail vein (Introcan, 24G, yellow). The animals received 0.1 mmol Gd/kg bw as intravenous bolus injection via tail vein (50 mmol Gd/L formulation). Bile was sampled 0-0.5 h, 0.5-1 h, 1-2 h, 2-3 h und 3-4 h post injection. […] The bile fractions (n=3 times 10 μL) were dried for 2 h at 90° C. and 50 μL 65% nitric acid (HNO3, Fa. Fisher, Optima Grade #1219010) and 30 μL hydrogen peroxide 30% (H2O2 Fa VWR Chemicals, AnalaR NORMAPUR, #18J024022) were added and processed in microwave oven (5 cycles: 5 min 40W, 5 min 120W, 10 min 200W, 10 min 320W and 25 min 400W, Fa. CEM, Mars5 Xpress).

[4] = reference compounds, 1.5 T, 37° C., from Rohrer et al.; cited from earlier work
[5] = reference compounds, 1.5 T, 37° C., bovine plasma instead of human plasma, from Rohrer et al.; cited from earlier work

Row | SMILES | Uptake rat hepatocytes [1] | Inhibition Rifampicine [1] [% inhibition] | r1 water [2] [L/mmol/s] | Biliary excretion, % of injected dose, Mean ± SD (cumulative) ([3]; bile fraction 0-0.5 h) [%] | Biliary excretion, % of injected dose, Mean ± SD (cumulative) ([3]; bile fraction 0.5-1 h) [%] | Biliary excretion, % of injected dose, Mean ± SD (cumulative) ([3]; bile fraction 1-2 h) [%] | Biliary excretion, % of injected dose, Mean ± SD (cumulative) ([3]; bile fraction 2-3 h) [%] | Biliary excretion, % of injected dose, Mean ± SD (cumulative) ([3]; bile fraction 3-4 h) [%] | r1 water [4] [L/mmol/s] | r1 plasma (r1 human plasma) [5] [L/mmol/s]
1 | CCOc1ccc(CCOCC(C(=O)O)N2CCN(CC(=O)[O-])CCN(CC(=O)[O-])CCN(CC(=O)[O-])CC2)cc1.[Gd+3] (stereo not drawn) [Example 1, gadolinium 2,2′,2″-(10-{1-carboxy-2-[2-(4-ethoxyphenyl)ethoxy]ethyl}-1,4,7,10-tetraazacyclododecane-1,4,7-triyl)triacetate] | 29 % of RC1 | 93 | 4.1 | 55.5 ± 1.7 | 62.6 ± 0.7 | 65.1 ± 1.3 | 65.6 ± 1.6 | 65.8 ± 1.7 | – | –
2 | CCOCCOCCOc1ccc(CC(C(=O)O)N2CCN(CC(=O)[O-])CCN(CC(=O)[O-])CCN(CC(=O)[O-])CC2)cc1.[Gd+3] (stereo not drawn) [Example 2, gadolinium 2,2′,2″-{10-[1-carboxy-2-{4-[2-(2-ethoxyethoxy)ethoxy]phenyl}ethyl]-1,4,7,10-tetraazacyclododecane-1,4,7-triyl}triacetate] | 52 % of RC1 | 85 | 4.4 | – | – | – | – | – | – | –
3 | CCOCCOCCOc1ccc(CCC[C@@H](C(=O)O)N2CCN([C@@H](CO)C(=O)[O-])CCN([C@@H](CO)C(=O)[O-])CCN([C@@H](CO)C(=O)[O-])CC2)cc1.[Gd+3] [Example 15, gadolinium (2S,2′S,2″S)-2,2′,2″-{10-[(1S)-1-carboxy-4-{4-[2-(2-ethoxyethoxy)ethoxy]phenyl}butyl]-1,4,7,10-tetraazacyclododecane-1,4,7-triyl}tris(3-hydroxypropanoate)] | 109 % of RC1 | 94 | 5.1 | – | – | – | – | – | – | –
4 | CCOc1ccc(CC(CN(CCN(CC(=O)[O-])CC(=O)[O-])CC(=O)[O-])N(CC(=O)[O-])CC(=O)[O-])cc1.[Gd+3].[Na+].[Na+] (stereo not drawn) [RC1, gadoxetate disodium, reference compound] | 100 % of RC1 | 97 | – | – | – | – | – | – | 3.3 | 5.2
